The values that follow come from US10409869B2, “(R)- and (S)-1-(3-(3-N,N-dimethylaminocarbonyl)phenoxyl-4-nitrophenyl)-1-ethyl-N,N'-bis (ethylene)phosphoramidate, compositions and methods for their use and preparation” (OBI Pharma, Inc., priority 2015, dated 2019).

For experiment [1], the system named is HepG2-GFP human hepatocellular carcinoma. Kind of experiment: Orthotopic HepG2-GFP human hepatocellular carcinoma mouse model, tumor burden. Type of experiment: in vivo, nude mice. The settings on record: at tested dosages. Here is the method: Female athymic nude mice (6 weeks of age) were used in this study. The animals were purchased from Beijing HFK Bioscience, Co., Ltd and maintained in a High Efficiency Particulate Air Filter (HEPA) filtered environment with cages, food, and bedding sterilized by irradiation or autoclaving. A total of 32 nude mice were used for the study. HepG2-GFP human hepatocellular carcinoma cells (AntiCancer, Inc., San Diego, Calif.) were incubated with RPMI-1640 (Gibco-BRL, Life Technologies, Inc.), which contained 10% FBS. Cells were grown in a CO2 Water Jacketed Incubator (Forma Scientific) maintaining 37° C. and a 5% CO2/95% air atmosphere. Cell viability was determined by trypan blue exclusion analysis. Five female athymic nude mice were injected subcutaneously with a single dose of 5×10^6 HepG2-GFP cells. Tumors were harvested when their size reached 1 cm^3 and the tumor tissues were then cut into small fragments of 1 mm^3. Forty female nude mice were implanted orthotopically with a single piece of tumor fragment, which was derived from a subcutaneous tumor model of HepG2-GFP human hepatocellular carcinoma. The tumor tissue was orthotopically implanted in the right lobe of the liver in each mouse by SOI (Surgical Orthotopic Implantation). […]
During the period of the study, all of the experimental mice were checked daily for mortality or signs of morbidity. […] The body weights of the mice were measured twice weekly during the study period. […] Comparisons of body weights and tumor burdens in different groups were analyzed using the Student's t-test with an α=0.05 (two-sided). […]
The progressions of orthotopic HepG2-GFP hepatocellular carcinoma in different groups were monitored by real time imaging. […] Typical tumor images at the end of the study in each group and tumor growth curves derived from the signals of tumor fluorescence, which were analyzed using the Power Station software (INDEC Biosystems, CA, USA), are shown in FIG. 6 and FIG. 7, respectively
Tumor IR was calculated based on the final average tumor weights according to the formula: IR (%)=(1−treatment(t)/control(c))×100

For a further experiment, the system named is AL7473 cells. Kind of experiment: T-cell leukemia animal model, human CD45 FACS. Type of experiment: in vivo, mouse. Here is the method:
Leukemic cells were prepared by thawing out ˜150×10^6 of AL7473 cells from LN2 (about 2-3 vials) and placing them into a 37° C. water bath rapidly. All of the cells were transferred into a 50 ml falcon tube with 40 ml pre-warmed complete medium. The cells were centrifuged at 1200 rpm for 5 min. The cells were re-suspended with 40 ml RPMI1640. The cells were then counted. The cells were centrifuged at 1200 rpm for 5 min. and re-suspended with ice cold PBS to 2 million cell per 100 ul PBS. 100 ul of saline containing 2×10^6 cells prepared above were used to inject into each mouse by IV. The FACS analysis was done for blood weekly during the experimental period by transferring samples into FACS tubes, adding human CD45 FITC and isotypes into corresponding tubes for all the samples and incubating the cells on ice for 30 min. in the dark. 2 ml of red blood cell lysing buffer was added to each tube and incubated on ice for another 30 min. in the dark. […] Samples were analyzed on a BD Calibur by using Cell Quest or Flowjo and the results were analyzed by using Prism 5.0. […]
Peripheral blood was collected weekly for human CD45 antibody FACS detected during treatment since the treatment start on Day 43 post cell inoculation. […] Blood, spleen and bone marrow of all mice were collected for human CD45 FACS detected. […]

For `C[C@H](OP(=O)(N1CC1)N1CC1)c1ccc([N+](=O)[O-])c(Oc2cccc(C(=O)N(C)C)c2)c1` (single isomer, unassigned) [TH3424], the “inhibitory effect on orthotopic HepG2-GFP model” value in experiment [1] is on record as “very strong inhibitory effect”. Further, in the experiment on AL7473 cells (after the second dosing, treatment groups 2-4 vs vehicle group 1, P<0.001), the “percentages of human CD45+ leukemia cells in peripheral blood” value is reported as “significantly lower than vehicle group”. In the experiment on AL7473 cells (groups 2-4 vs group1, P<0.01, bone marrow in group2 P<0.05), the “tumor burden (human CD45) in blood, spleen and bone marrow at termination” value is reported as “significant differences”.
